Assay results as given in ChEMBL document CHEMBL1201862, “PubChem BioAssay data set” (2004).
The source made the active and inactive calls.

Legend:
[1] = target: T1, Methionyl-tRNA synthetase, putative (Trypanosoma brucei brucei, UniProt Q38C91); type: functional, Trypanosoma brucei brucei strain 927/4 GUTat10.1
[2] = Counterscreen for inhibitors of Trypanosoma brucei methionyl tRNA synthetase (MetRS): Luminescence-based cell-based high throughput dose response assay to identify compounds that are cytotoxic to Jurkat human T lymphocyte cells.; type: functional
[3] = target: T1, Methionyl-tRNA synthetase, putative; type: functional, Trypanosoma brucei brucei strain 927/4 GUTat10.1; remark: listed apart in the source
[4] = target: Beta-galactosidase (Escherichia coli, UniProt Q8VNN2); assay: Dose response counterscreen for EBI2 assay utilizing the enzyme, b-galactosidase.; type: functional
[5] = target: Adenosylmethionine-8-amino-7-oxononanoate aminotransferase (Mycobacterium tuberculosis, UniProt P9WQ81); assay: Mycobacterium tuberculosis BioA enzyme inhibitor Measured in Biochemical System Using Plate Reader - 2163-02_Inhibitor_Dose_CherryPick_Activity.; type: functional, Mycobacterium tuberculosis UT205
[6] = intracellular Trypanosoma cruzi inhibitors in host cells – cell-based, plate reader, cherry-pick samples, set 3, dose response (AID 651818); type: functional;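 further: compounds incubated with infected cells for about four days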
[7] = target: Hepatocyte nuclear factor 4-alpha (Homo sapiens, UniProt P41235); type: functional, cell-based;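 further: biochemical luminescence-based dose-response counterscreen measuring inhibition of HNF4 dimerization, run alongside a screen for blockers of ABHD5–perilipin-5 interaction; split luciferase complementation of HNF4 fusion proteins in cell lysate measuring dimerization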
[8] = activation of miR-122 Renilla sensor silencing – cell-based, Huh7 psiCHECK-miR122, Renilla luciferase, cherry-picked, dose response (AID 651956); type: functional;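 further: huh7 hepatoma cells stably carrying a psiCHECK-2 miR-122 sensor plasmid; renilla luciferase signal reporting endogenous miR-122 activity after 48 h compound exposure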
[9] = general mammalian cell viability loss – inhibitor set, cherry-pick, set 2, cytotoxicity control for miR-122 modulator project, dose response (AID 720697); type: functional, cell-based
[10] = cytotoxicity in HEK293 background cells – cell-based, dry powder, set 2, counter-screen for EBV LMP1 inhibitor project, dose response (AID 624374); type: functional
[11] = target: Long-chain-fatty-acid--AMP ligase FadD28 (Mycobacterium tuberculosis, UniProt P9WQ59); assay: Fluorescence polarization aasay to screen for inhibitors that compete for the binding of FadD28 to a bisubstrate Measured in Biochemical System Using Plate Reader - 2147-01_Inhibitor_Dose_CherryPick_Activity.; type: functional, Mycobacterium tuberculosis H37Rv
[12] = microbe, parasite or virus in culture; type: functional; settings: Mycobacterium tuberculosis
[13] = target: Fructose-bisphosphate aldolase (Mycobacterium tuberculosis, UniProt P9WQA3); assay: Fluorescence-based biochemical high throughput dose response assay for inhibitors of the fructose-bisphosphate aldolase (FBA) of M. tuberculosis.; type: functional
Fructose-bisphosphate aldolase, sequence (P9WQA3 whole entry): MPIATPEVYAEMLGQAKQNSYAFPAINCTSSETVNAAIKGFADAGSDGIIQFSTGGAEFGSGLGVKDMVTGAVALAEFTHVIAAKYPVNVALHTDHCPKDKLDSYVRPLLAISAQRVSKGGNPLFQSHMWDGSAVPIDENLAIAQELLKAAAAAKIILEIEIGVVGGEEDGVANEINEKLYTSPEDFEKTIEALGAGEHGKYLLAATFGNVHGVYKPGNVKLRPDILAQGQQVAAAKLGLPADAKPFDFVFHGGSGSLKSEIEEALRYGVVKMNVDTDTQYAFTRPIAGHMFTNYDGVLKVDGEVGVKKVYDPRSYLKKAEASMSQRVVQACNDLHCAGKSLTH

T1 sequence (Q38C91 whole entry): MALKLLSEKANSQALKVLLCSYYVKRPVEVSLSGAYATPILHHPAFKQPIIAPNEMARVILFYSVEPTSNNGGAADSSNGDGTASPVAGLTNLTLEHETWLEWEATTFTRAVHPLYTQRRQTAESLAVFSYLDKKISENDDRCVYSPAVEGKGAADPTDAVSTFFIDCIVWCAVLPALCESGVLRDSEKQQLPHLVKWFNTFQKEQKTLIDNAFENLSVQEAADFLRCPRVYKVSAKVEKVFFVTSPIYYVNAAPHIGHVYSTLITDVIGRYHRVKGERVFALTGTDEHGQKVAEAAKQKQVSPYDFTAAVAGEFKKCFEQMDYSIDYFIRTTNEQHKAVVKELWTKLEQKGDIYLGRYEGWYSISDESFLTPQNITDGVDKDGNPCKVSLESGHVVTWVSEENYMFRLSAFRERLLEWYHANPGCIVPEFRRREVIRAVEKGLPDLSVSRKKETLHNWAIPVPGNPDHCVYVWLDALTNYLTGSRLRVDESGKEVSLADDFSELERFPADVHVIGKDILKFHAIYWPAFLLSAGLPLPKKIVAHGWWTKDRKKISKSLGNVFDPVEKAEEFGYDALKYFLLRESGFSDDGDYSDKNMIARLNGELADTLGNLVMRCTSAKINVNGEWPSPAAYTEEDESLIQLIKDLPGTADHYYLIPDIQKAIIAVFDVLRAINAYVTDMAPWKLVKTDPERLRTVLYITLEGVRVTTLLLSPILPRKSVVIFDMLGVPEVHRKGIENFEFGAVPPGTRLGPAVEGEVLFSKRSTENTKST
Adenosylmethionine-8-amino-7-oxononanoate aminotransferase, sequence (P9WQ81 whole entry): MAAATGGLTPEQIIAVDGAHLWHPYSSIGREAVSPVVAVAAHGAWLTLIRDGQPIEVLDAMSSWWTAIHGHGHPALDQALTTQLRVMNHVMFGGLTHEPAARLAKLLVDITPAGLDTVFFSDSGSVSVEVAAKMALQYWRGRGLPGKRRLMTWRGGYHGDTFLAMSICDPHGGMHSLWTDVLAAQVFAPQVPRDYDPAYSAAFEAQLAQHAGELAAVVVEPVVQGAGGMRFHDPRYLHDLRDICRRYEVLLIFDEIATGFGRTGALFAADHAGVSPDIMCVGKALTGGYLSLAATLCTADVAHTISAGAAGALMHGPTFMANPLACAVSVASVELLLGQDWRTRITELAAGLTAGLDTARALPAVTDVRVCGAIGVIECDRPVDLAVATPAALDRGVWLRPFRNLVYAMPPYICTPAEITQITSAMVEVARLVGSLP
Hepatocyte nuclear factor 4-alpha, sequence (P41235 whole entry, the tested form may be a part): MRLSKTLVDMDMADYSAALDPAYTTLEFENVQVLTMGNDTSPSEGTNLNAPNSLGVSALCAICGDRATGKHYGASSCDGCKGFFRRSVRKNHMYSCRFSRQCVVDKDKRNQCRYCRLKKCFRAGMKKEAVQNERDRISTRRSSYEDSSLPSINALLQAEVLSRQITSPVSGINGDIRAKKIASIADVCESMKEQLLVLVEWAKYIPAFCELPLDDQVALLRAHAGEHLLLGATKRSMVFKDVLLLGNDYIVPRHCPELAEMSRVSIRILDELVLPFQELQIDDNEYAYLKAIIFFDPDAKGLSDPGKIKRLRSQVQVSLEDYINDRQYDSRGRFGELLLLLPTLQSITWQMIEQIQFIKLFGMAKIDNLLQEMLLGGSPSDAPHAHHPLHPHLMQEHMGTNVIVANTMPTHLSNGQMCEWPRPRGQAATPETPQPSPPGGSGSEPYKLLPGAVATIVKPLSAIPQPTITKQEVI
Beta-galactosidase, sequence (Q8VNN2 whole entry): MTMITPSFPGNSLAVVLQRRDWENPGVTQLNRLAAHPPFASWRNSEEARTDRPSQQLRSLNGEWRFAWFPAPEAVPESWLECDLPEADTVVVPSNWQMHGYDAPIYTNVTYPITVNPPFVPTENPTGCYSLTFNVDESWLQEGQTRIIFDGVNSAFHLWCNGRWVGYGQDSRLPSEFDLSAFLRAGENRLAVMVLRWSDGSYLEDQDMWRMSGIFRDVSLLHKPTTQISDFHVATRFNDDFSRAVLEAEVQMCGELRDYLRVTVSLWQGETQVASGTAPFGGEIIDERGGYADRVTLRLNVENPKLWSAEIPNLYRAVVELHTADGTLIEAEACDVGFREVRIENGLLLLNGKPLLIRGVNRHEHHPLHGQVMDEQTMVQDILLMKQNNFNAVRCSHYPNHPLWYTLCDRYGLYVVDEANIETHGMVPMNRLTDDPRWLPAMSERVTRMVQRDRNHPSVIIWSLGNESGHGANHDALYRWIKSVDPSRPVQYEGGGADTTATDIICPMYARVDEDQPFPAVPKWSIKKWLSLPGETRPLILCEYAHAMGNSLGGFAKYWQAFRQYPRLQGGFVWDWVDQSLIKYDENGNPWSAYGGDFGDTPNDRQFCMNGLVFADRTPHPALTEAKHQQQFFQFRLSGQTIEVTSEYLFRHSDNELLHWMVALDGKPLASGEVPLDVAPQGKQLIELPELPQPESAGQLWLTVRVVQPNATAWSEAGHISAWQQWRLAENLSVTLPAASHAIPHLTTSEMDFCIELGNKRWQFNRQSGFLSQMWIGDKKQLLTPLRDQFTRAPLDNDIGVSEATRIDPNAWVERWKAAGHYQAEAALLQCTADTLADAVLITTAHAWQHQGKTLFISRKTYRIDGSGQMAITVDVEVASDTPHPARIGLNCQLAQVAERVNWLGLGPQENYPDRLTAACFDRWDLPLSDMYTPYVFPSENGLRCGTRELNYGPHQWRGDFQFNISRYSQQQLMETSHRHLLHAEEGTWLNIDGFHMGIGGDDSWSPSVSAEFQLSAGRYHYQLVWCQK
Long-chain-fatty-acid--AMP ligase FadD28, sequence (P9WQ59 whole entry): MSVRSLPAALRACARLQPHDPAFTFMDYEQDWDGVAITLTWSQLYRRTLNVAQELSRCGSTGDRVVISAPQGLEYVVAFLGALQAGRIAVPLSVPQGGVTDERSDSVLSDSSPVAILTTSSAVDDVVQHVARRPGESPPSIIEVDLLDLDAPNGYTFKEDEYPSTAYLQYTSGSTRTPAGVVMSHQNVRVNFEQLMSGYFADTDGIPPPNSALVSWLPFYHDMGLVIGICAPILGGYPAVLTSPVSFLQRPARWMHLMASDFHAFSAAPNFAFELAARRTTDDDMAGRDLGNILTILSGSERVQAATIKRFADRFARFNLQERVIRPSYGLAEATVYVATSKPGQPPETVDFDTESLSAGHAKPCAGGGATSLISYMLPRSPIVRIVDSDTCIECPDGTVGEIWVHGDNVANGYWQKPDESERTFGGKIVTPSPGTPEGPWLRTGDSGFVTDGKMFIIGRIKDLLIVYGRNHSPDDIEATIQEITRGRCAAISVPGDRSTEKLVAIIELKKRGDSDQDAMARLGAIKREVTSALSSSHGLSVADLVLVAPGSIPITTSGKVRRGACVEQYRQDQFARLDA

COC(=O)CN1C(=S)N(c2ccc(Cl)cc2)C(=O)C1CC(=O)Nc1ccc(Cl)cc1 (stereo not drawn)
IC50 [1]: 13.7 µM (inactive)
IC50 [2]: 83.3 µM (inactive)
IC50 [3]: 19.7 µM (inactive)

O=C(c1ccc(-n2cccn2)cc1)N1CCN(c2ncccc2C(F)(F)F)CC1
IC50 [4]: > 80 µM (inactive)

O=C(COc1ccc2ccc(=O)oc2c1)Nc1cccnc1
AC50 [5]: 13.6 µM (active)

COc1ccc(NC(=O)Nc2ccc3c(c2)CC(=O)N([C@H](C)CO)C[C@H](C)[C@H](CN(C)Cc2ccc(C(=O)Nc4ccccc4N)cc2)O3)cc1
AC50 [6]: 4.17 µM (active)

COc1ccc(C(C(=O)Nc2c(C)cccc2C)n2c(=O)c(-c3ccco3)nc3ccccc32)cc1 (stereo not drawn)
IC50 [7]: 2.42 µM (active)

C[C@@H]1CN([C@@H](C)CO)S(=O)(=O)c2ccc(C#Cc3ccncc3)cc2O[C@@H]1CN(C)C(=O)Nc1ccc2c(c1)OCO2
AC50 [8]: 6.9 µM (active)
AC50 [9]: 10.7 µM (active)

C[C@@H](NC(=O)C[C@H]1C[C@@H]2c3cc(NC(=O)c4cccnc4)ccc3O[C@@H]2[C@@H](CO)O1)c1ccccc1
AbsAC35 [10]: 222.38 µM

O=C(N/N=C/c1c[nH]c2ccccc12)c1cc(Br)ccc1O
AC50 [11]: 7.18 µM (active)

C(=C\c1nccc2c1[nH]c1ccccc12)/c1ccccc1
CC50 [12]: 25.4 µM (active)
IC50 [13]: > 0.37 µM (active)
